Results reported in ChEMBL document CHEMBL5380815, “Probing Ligand Binding Sites on Large Proteins by Nuclear Magnetic Resonance Spectroscopy of Genetically Encoded Non-Canonical Amino Acids” (J Med Chem, 2023).
Activity calls are given as the source filed them. No cut-off for these calls is given here.

Key:
[1] = molecular target: T1, Replicase polyprotein 1ab (Severe acute respiratory syndrome coronavirus 2, UniProt P0DTD1); assay: Binding affinity to SARS-COV2 main protease assessed as dissociation constant by analytical ultracentrifugation analysis
[2] = molecular target: T1, Replicase polyprotein 1ab; assay: Binding affinity to SARS-COV2 main protease assessed as dissociation constant by mass spectrometry analysis
[3] = molecular target: T1, Replicase polyprotein 1ab; assay: Binding affinity to wild type SARS-COV2 main protease expressed in Escherichia coli BL21 (DE3) assessed as dissociation constant by small angle X-ray scattering analysis
[4] = molecular target: Replicase polyprotein 1ab (Severe acute respiratory syndrome coronavirus 2) (UniProt P0DTD1); assay: Inhibition of wild type recombinant SARS-COV2 main protease expressed in Escherichia coli BL21 (DE3) using DABCYL-KTSAVLQSGFRKME-EDANS-NH2 as fluorogenic substrate at 1.5 to 50 uM preincubated for 10 mins followed by substrate addition by FRET assay; conditions: dose 1.5-50 µM
[5] = system: SARS-CoV-2; assay: Antiviral activity against SARS-COV2 infected in African green monkey Vero E6 cells assessed as reduction of viral titer by immunofocus assay; format: functional, organism-based; conditions: Severe acute respiratory syndrome coronavirus 2, Vero C1008

Structure (SMILES)	Kd [1] [µM]	Kd [2] [µM]	Kd [3] [µM]	inhibition [4]	EC50 [5] [µM]
CC(=O)[C@@H]1CSCC(=O)N[C@H](Cc2ccc(O)cc2)C(=O)N[C@@H](CC(C)C)C(=O)N[C@@H](CCC(N)=O)C(=O)N[C@@H](Cc2ccc(O)cc2)C(=O)N[C@@H](C)C(=O)N[C@@H](C(C)C)C(=O)N[C@@H](CC(C)C)C(=O)N[C@@H](CCCNC(=N)N)C(=O)N[C@@H](Cc2c[nH]cn2)C(=O)N[C@@H](CCCCN)C(=O)N[C@@H](CCCNC(=N)N)C(=O)N[C@@H](CCCNC(=N)N)C(=O)N[C@@H](CCC(=O)O)C(=O)C1	2.5	0.14	7		
CCOc1cc2ncc(C#N)c(Nc3ccc(F)c(Cl)c3)c2cc1NC(=O)/C=C/CN(C)C [PELITINIB]				inactive	1.25
